According to patent US20260000652A1, “IMPEDING PLATINUM-BASED CHEMOTHERAPEUTIC INDUCED OTOTOXICITY USING A COLONY STIMULATING FACTOR 1 RECEPTOR INHIBITOR” (THE UNITED STATES OF AMERICA, AS REPRESENTED BY THE …, priority 2022, published 2026):
Entries after “also recorded” stand apart in the source; their conditions may differ.

Legend:
cochlear macrophages = assay: Cochlear macrophage ablation, DAPI and CX3CR1-GFP staining of cochlear sections; type: in vivo, mouse; settings: for ablation of cochlear macrophages: DAPI and CX3CR1-GFP staining of cochlea, saline- and cisplatin-treated mice, vs no pexidartinib
Source text: The CSF1R inhibitor can inhibit, directly and/or indirectly, macrophages, or microglia, or both. Inhibition and/or killing of macrophages and/or microglia can be referred to as “ablation.” The macrophages can comprise cochlear resident macrophages, or recruited macrophages, or both. Fractalkine receptor CX3CR1 is a regulator of macrophage function and can be utilized to label macrophages. The resident macrophages can comprise perivascular resident macrophage-like melanocytes (PVM/Ms). PVM/Ms can regulate the integrity of the blood labyrinth barrier (BLB), a barrier between the vasculature and the inner ear fluids (endolymph or perilymph). The BLB can control exchanges between the blood and fluids from intrastitial space in cochlea. The BLB can maintain the inner ear fluid ionic homeostasis. The BLB can restrict entry of most blood-borne (toxic) substances into inner ear tissues. The BLB can selectively pass ions, fluids, and nutrients into cochlea. The CSF1R inhibitor can affect, directly and/or indirectly, the blood labyrinth barrier (BLB) and one or more of its functions.
(§1) A clinically relevant mouse model of cisplatin-induced ototoxicity was developed and used to examine whether macrophages play a role in hearing loss in response to cisplatin. Pexidartinib is an inhibitor of the colony stimulating factor 1 receptor (CSF1R), which aids in the survival of microglia and cochlear resident macrophages.

[1] = Cisplatin-induced weight loss in mouse model of cisplatin ototoxicity; type: in vivo; settings: cisplatin-treated mice with macrophage ablation
Source text: as §1

outer hair cell function = assay: Distortion product otoacoustic emissions (DPOAE) in cisplatin-treated mice; type: in vivo, mouse; settings: cisplatin plus pexidartinib vs cisplatin only; 16, 22, 32, 40 kHz
[2] = Mass spectrometry measurement of platinum content in microdissected inner ear tissues; type: in vivo, mouse; settings: spiral ganglion neurons, organ of Corti, stria vascularis, utricle, saccule
outer hair cells = assay: Outer hair cell survival, Myosin 7a staining and quantification of cochlear hair cells; type: in vivo, mouse; settings: cisplatin mice co-treated with PLX3397, Myosin 7a staining, 16, 22.4, 32, 40 kHz regions
Experimental: Hearing sensitivity was assessed prior to pexidartinib/cisplatin administration and after the end of the third cycle of the treatment protocol using auditory brainstem responses (ABR) and distortion product otoacoustic emissions (DPOAE). […] Histology can be performed using MyosinVIla (turquoise).
The data are supportive of macrophage ablation being protective against cisplatin-induced hearing loss. […] Data and other information relevant to the experimental examples are depicted in the various figures of the drawings and summarized herein.

[3] = tested on: cisplatin-induced hearing loss; assay: Hearing sensitivity by auditory brainstem responses (ABR) in cisplatin-treated mice; type: in vivo, mouse; settings: cisplatin plus pexidartinib vs cisplatin only, after end of third cycle

Structure (SMILES)	number of macrophages in the cochlea (cochlear macrophages; cisplatin vs control, whole cochlear section)	ablation of cochlear macrophages (cochlear macrophages)	ablation of cochlear macrophages (cochlear macrophages; listed as PL3397)	cisplatin-induced weight loss [1]	OHC function (DPOAE amplitudes) (outer hair cell function)	cisplatin entry into the inner ear (platinum content) [2]	OHC survival (outer hair cells)	OHC survival (outer hair cells; listed as PLX3397)	cisplatin-induced hearing loss (ABR threshold shifts) [3]	cisplatin-induced hearing loss (ABR threshold shifts) ([3]; listed as PLX3397)
N.N.[Cl][Pt][Cl] [cisplatin]	reduced number of macrophages in the cochlea									
FC(F)(F)c1ccc(CNc2ccc(Cc3c[nH]c4ncc(Cl)cc34)cn2)cn1 [pexidartinib]		ablate macrophages; also recorded: effectively ablates cochlear macrophages; also recorded: ablation of macrophages	effectively ablates cochlear macrophages	significantly reduced cisplatin-induced weight loss	protected from the loss of OHC function; also recorded: higher DPOAE amplitudes	reduces cisplatin entry into the inner ear; also recorded: reduced cisplatin entry to the inner ear	increased OHC survival; also recorded: protection of outer hair cells against cisplatin-induced hair cell loss	greater OHC survival	significantly reduced hearing loss	significantly reducing cisplatin-induced hearing loss
